These results are taken from patent publication US10934304B2, “Spirocyclic compounds” (Recurium IP Holdings, LLC, priority 2016, dated 2021).

By IC50 is commonly meant the concentration that inhibits the measured activity by half.

The test system of one experiment is A375 (melanoma) cells. Put plainly: Proliferation Assay (CellTiter-Glo). Type of experiment: cell-based. The conditions noted are these: 3 days incubation, CellTiter-Glo luminescence. In a few lines: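 A375 cells in RPMI-1640 with 10% FBS, plated overnight, then exposed to 10-point 3-fold serial compound dilutions for 3 days at 37° C, 5% CO2. Viability read by CellTiter-Glo luminescence.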
Background: In ATP-based viability assays light output follows the ATP content of the culture.

The target of the next experiment is ERK2 (Homo sapiens (Human), UniProt P28482). Put plainly: Active ERK1 and ERK2 Kinase Assay (Mobility Shift Assay). Type of experiment: biochemical. As to conditions: activated ERK2, Mobility Shift Assay. In a few lines:
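Mobility shift assay: compound preincubated with activated kinase 30 min at rt in 20 mM HEPES pH 7.5, 0.01% Triton X-100, 2 mM DTT. Reaction started with fluorescent substrate, ATP and metal, run 1 h at rt; activity taken as product ratio P/(P+S) after LabChip peptide separation.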

Sequence of ERK2 (P28482 whole entry): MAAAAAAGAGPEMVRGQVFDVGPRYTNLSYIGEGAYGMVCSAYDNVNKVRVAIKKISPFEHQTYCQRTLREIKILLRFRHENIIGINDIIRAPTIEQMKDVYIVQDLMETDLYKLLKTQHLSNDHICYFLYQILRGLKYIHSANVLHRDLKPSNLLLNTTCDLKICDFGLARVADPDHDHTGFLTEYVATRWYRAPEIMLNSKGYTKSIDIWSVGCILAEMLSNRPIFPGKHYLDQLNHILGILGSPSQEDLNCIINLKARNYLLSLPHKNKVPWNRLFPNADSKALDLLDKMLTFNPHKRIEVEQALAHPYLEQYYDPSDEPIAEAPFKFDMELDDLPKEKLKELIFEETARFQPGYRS

For the compound `Cc1cc(-c2n[nH]c3ccc(N4CC[C@]5(CCN(CC(=O)N6CCN(c7ccc(-c8ncn(C)n8)cn7)CC6)C5)C4=O)nc23)ccn1` [Example 44], the concentration for half-maximal inhibition (IC50) in the experiment on A375 (melanoma) cells was ≤ 0.5 µM; on ERK2, ≤ 0.05 µM.
Taken in the same sequence, the figures for `Cn1cnc(-c2ccc(N3CCN(C(=O)CN4CC[C@]5(CCN(c6ccc7[nH]nc(-c8ccc(F)cc8)c7n6)C5=O)C4)CC3)nc2)n1` [Example 45] were ≤ 0.5 µM and ≤ 0.05 µM.
With `COc1ccc(-c2n[nH]c3ccc(N4CC[C@]5(CCN(CC(=O)N6CCN(c7ccc(-c8ncn(C)n8)cn7)CC6)C5)C4=O)nc23)cn1` [Example 46], the values for the IC50 with A375 (melanoma) cells and at ERK2 were ≤ 0.5 µM and ≤ 0.05 µM, respectively.
Taken in the same sequence, the figures for `Cn1cnc(-c2cnc(C3=CCN(C(=O)CN4CC[C@]5(CCN(c6ccc7[nH]nc(-c8ccc(F)cc8)c7n6)C5=O)C4)CC3)s2)n1` [Example 47] were ≤ 0.5 µM and ≤ 0.05 µM.
For `C[C@@H]1CN(c2n[nH]c3ccc(N4CC[C@]5(CCN(CC(=O)N6CC=C(c7ccc(-c8ncn(C)n8)cc7)CC6)C5)C4=O)nc23)C[C@H](C)O1` [Example 48] the same measures were 0.5 to 1 µM and ≤ 0.05 µM.
For `Cn1cnc(-c2ccc(C3=CCN(C(=O)CN4CCC5(CCN(c6ccc7[nH]nc(N8CCOCC8)c7n6)C5=O)C4)CC3)cc2)n1` (stereo not shown) [Example 49] the same measures were ≤ 0.5 µM and ≤ 0.05 µM.
`Cn1cnc(-c2ccc(C3=CCN(C(=O)CN4CC[C@]5(CCN(c6ccc7[nH]nc(-c8ccc(F)cn8)c7n6)C5=O)C4)CC3)cc2)n1` [Example 50]: the results for the IC50 with A375 (melanoma) cells and at ERK2 were 0.5 to 1 µM and ≤ 0.05 µM, respectively.
Taken in the same sequence, the figures for `Cn1cnc(-c2ccc(C3=CCN(C(=O)CN4CC[C@]5(CCN(c6ccc7[nH]nc(-c8ccc(C#N)cn8)c7n6)C5=O)C4)CC3)cc2)n1` [Example 51] were ≤ 0.5 µM and ≤ 0.05 µM.
Regarding `CC1CC(c2n[nH]c3ccc(N4CCC5(CCN(CC(=O)N6CC=C(c7ccc(-c8nn(C)c(=O)o8)cc7)CC6)C5)C4=O)nc23)CC(C)O1` (stereo not shown) [Example 52], the IC50 in the experiment with A375 (melanoma) cells is ≤ 0.5 µM; on ERK2 it was ≤ 0.05 µM.
For `Cn1cnc(-c2cnc(C3=CCN(C(=O)CN4CC[C@]5(CCN(c6ccc7[nH]nc(-c8ccc(F)cn8)c7c6)C5=O)C4)CC3)s2)n1` [Example 54], the IC50 in the experiment on A375 (melanoma) cells was ≤ 0.5 µM; on ERK2, ≤ 0.05 µM.
For `Cn1cnc(-c2ccc(C3=CCN(C(=O)CN4CC[C@]5(CCN(c6ccc7[nH]nc(-c8ccc(F)cn8)c7c6)C5=O)C4)CC3)s2)n1` [Example 55] the same measures were ≤ 0.5 µM and ≤ 0.05 µM.
Taken in the same sequence, the figures for `Cn1cnc(-c2ccc(N3CCN(C(=O)CN4CC[C@]5(CCN(c6ccc7[nH]nc(-c8ccc(F)cn8)c7c6)C5=O)C4)CC3)cc2)n1` [Example 56] were ≤ 0.5 µM and ≤ 0.05 µM.
Taken in the same sequence, the figures for `Cn1cnc(-c2ccc(N3CCN(C(=O)CN4CC[C@]5(CCN(c6ccc7[nH]nc(-c8ccc(F)cn8)c7c6)C5=O)C4)CC3)nc2)n1` [Example 57] were ≤ 0.5 µM and ≤ 0.05 µM.
Regarding `Cn1cnc(-c2ccc(C3=CCN(C(=O)CN4CC[C@]5(CCN(c6ccc7[nH]nc(-c8cnn(C)n8)c7c6)C5=O)C4)CC3)cc2)n1` [Example 58, (S)-7-(2-(4-(4-(1-methyl-1H-1,2,4-triazol-3-yl)phenyl)-3,6-dihydropyridin-1(2H)-yl)-2-oxoethyl)-2-(3-(2-methyl-2H-1,2,3-triazol-4-yl)-1H-indazol-5-yl)-2,7-diazaspiro[4.4]nonan-1-one], the IC50 in the experiment with A375 (melanoma) cells (Homo sapiens, A-375, 72 h) is ≤ 0.5 µM; on ERK2, ≤ 0.05 µM.
On to `Cn1cnc(-c2ccc(C3=CCN(C(=O)CN4CC[C@]5(CCN(c6ccc7[nH]nc(-c8cnn(C)n8)c7n6)C5=O)C4)CC3)cc2)n1` [Example 59], for which the IC50 was 0.5 to 1 µM in the experiment on A375 (melanoma) cells and ≤ 0.05 µM on ERK2.
Taken in the same sequence, the figures for `COc1ccc(-c2n[nH]c3ccc(N4CC[C@]5(CCN(CC(=O)N6CC=C(c7ccc(-c8ncn(C)n8)cc7)CC6)C5)C4=O)cc23)nc1` [Example 60] were ≤ 0.5 µM and ≤ 0.05 µM.
Taken in the same sequence, the figures for `COc1cccc(-c2n[nH]c3ccc(N4CC[C@]5(CCN(CC(=O)N6CC=C(c7ccc(-c8ncn(C)n8)cc7)CC6)C5)C4=O)cc23)n1` [Example 61] were ≤ 0.5 µM and ≤ 0.05 µM.
For `Cn1cnc(-c2ccc(C3=CCN(C(=O)CN4CC[C@]5(CCN(c6ccc7[nH]nc(-c8ccc9c(c8)OC(C)(C)O9)c7n6)C5=O)C4)CC3)cc2)n1` [Example 62] the same measures were 0.5 to 1 µM and ≤ 0.05 µM.
`COc1ccc(-c2n[nH]c3ccc(N4CC[C@]5(CCN(CC(=O)N6CC=C(c7ccc(-c8ncn(C)n8)cc7)CC6)C5)C4=O)nc23)cc1` [Example 63]: the IC50 in the experiment on A375 (melanoma) cells was ≤ 0.5 µM; on ERK2 it was ≤ 0.05 µM.
`Cn1cnc(-c2ccc(C3=CCN(C(=O)CN4CC[C@]5(CCN(c6ccc7[nH]nc(C8CCOCC8)c7n6)C5=O)C4)CC3)s2)n1` [Example 64]: the IC50 with A375 (melanoma) cells was ≤ 0.5 µM; on ERK2, ≤ 0.05 µM.
Taken in the same sequence, the figures for `CC(C)Oc1ccc(-c2n[nH]c3ccc(N4CC[C@]5(CCN(CC(=O)N6CC=C(c7ccc(-c8ncn(C)n8)s7)CC6)C5)C4=O)nc23)cn1` [Example 65] were ≤ 0.5 µM and ≤ 0.05 µM.
Taken in the same sequence, the figures for `COc1ccc(-c2n[nH]c3ccc(N4CC[C@]5(CCN(CC(=O)N6CC=C(c7ccc(-c8ncn(C)n8)s7)CC6)C5)C4=O)nc23)cn1` [Example 66] were ≤ 0.5 µM and ≤ 0.05 µM.
Taken in the same sequence, the figures for `Cn1cnc(-c2ccc(C3=CCN(C(=O)CN4CC[C@]5(CCN(c6ccc7[nH]nc(-c8ccc(OC9CC9)nc8)c7n6)C5=O)C4)CC3)cc2)n1` [Example 67] were ≤ 0.5 µM and ≤ 0.05 µM.
For `Cn1cnc(-c2ccc(C3=CCN(C(=O)CN4CC[C@]5(CCN(c6ccc7[nH]nc(-c8ccc(Cl)cc8)c7n6)C5=O)C4)CC3)cc2)n1` [Example 68], the IC50 with A375 (melanoma) cells was ≤ 0.5 µM; on ERK2, ≤ 0.05 µM.
Take `Cn1cnc(-c2ccc(C3=CCN(C(=O)CN4CC[C@]5(CCN(c6ccc7[nH]nc(-c8ccc(Cl)cc8F)c7n6)C5=O)C4)CC3)cc2)n1` [Example 69]: the IC50 in the experiment on A375 (melanoma) cells was 0.5 to 1 µM; at ERK2, ≤ 0.05 µM.
On to `CC(C)Oc1ccc(-c2n[nH]c3ccc(N4CC[C@]5(CCN(CC(=O)N6CCC(c7ccc(-c8ncn(C)n8)cc7)CC6)C5)C4=O)nc23)cn1` [Example 71], for which the IC50 in the experiment with A375 (melanoma) cells was 0.5 to 1 µM; at ERK2 it was ≤ 0.05 µM.
`Cn1cnc(-c2ccc(C3=CCN(C(=O)CN4CC[C@]5(CCN(c6ccc7[nH]nc(C89CC(C8)C9)c7c6)C5=O)C4)CC3)cc2)n1` [Example 72, (S)-2-(3-(Bicyclo[1.1.1]pentan-1-yl)-1H-indazol-5-yl)-7-(2-(4-(4-(1-methyl-1H-1,2,4-triazol-3-yl)phenyl)-5,6-dihydropyridin-1(2H)-yl)-2-oxoethyl)-2,7-diazaspiro[4.4]nonan-1-one]: the IC50 with A375 (melanoma) cells (Homo sapiens, A-375, 72 h) was 0.5 to 1 µM; at ERK2, ≤ 0.05 µM.
For `Cn1cnc(-c2ccc(C3=CCN(C(=O)CN4CC[C@]5(CCN(c6ccc7[nH]nc(C89CC(C#N)(C8)C9)c7c6)C5=O)C4)CC3)cc2)n1` [Example 73, (S)-3-(5-(7-(2-(4-(4-(1-Methyl-1H-1,2,4-triazol-3-yl)phenyl)-5,6-dihydropyridin-1(2H)-yl)-2-oxoethyl)-1-oxo-2,7-diazaspiro[4.4]nonan-2-yl)-1H-indazol-3-yl)bicyclo[1.1.1]pentane-1-carbonitrile] the same measures were 0.5 to 1 µM and ≤ 0.05 µM.
In the case of `COc1cnc(-c2n[nH]c3ccc(N4CC[C@]5(CCN(CC(=O)N6CCC(c7ccc(-c8ncn(C)n8)cc7)CC6)C5)C4=O)cc23)c(F)c1` [Example 74], the IC50 with A375 (melanoma) cells was 0.5 to 1 µM; on ERK2 it was ≤ 0.05 µM.
As for `CC(C)Sc1ccc(-c2n[nH]c3ccc(N4CC[C@]5(CCN(CC(=O)N6CC=C(c7ccc(-c8ncn(C)n8)cc7)CC6)C5)C4=O)nc23)cn1` [Example 76], the figures for the half-inhibitory concentration (IC50) with A375 (melanoma) cells and at ERK2 were ≤ 0.5 µM and ≤ 0.05 µM, respectively.
For `Cn1cnc(-c2ccc(C3=CCN(C(=O)CN4CC[C@]5(CCN(c6ccc7[nH]nc(-c8ccc(OC9CCC9)nc8)c7n6)C5=O)C4)CC3)cc2)n1` [Example 77] the same measures were ≤ 0.5 µM and ≤ 0.05 µM.
Taken in the same sequence, the figures for `Cc1ccc(-c2n[nH]c3ccc(N4CC[C@]5(CCN(CC(=O)N6CCC(c7ccc(-c8ncn(C)n8)cc7)CC6)C5)C4=O)nc23)cn1` [Example 79] were ≤ 0.5 µM and ≤ 0.05 µM.
Regarding `Cc1ccc(-c2n[nH]c3ccc(N4CC[C@]5(CCN(CC(=O)N6CCC(c7ncc(-c8ncn(C)n8)s7)CC6)C5)C4=O)nc23)cn1` [Example 80], the concentration for half-maximal inhibition (IC50) in the experiment on A375 (melanoma) cells (Homo sapiens, A-375, 72 h) was ≤ 0.5 µM; on ERK2 it was ≤ 0.05 µM.
Turning to `CCOc1ccc(-c2n[nH]c3ccc(N4CC[C@]5(CCN(CC(=O)N6CC=C(c7ccc(-c8ncn(C)n8)cc7)CC6)C5)C4=O)nc23)cn1` [Example 81], the IC50 is ≤ 0.5 µM with A375 (melanoma) cells and ≤ 0.05 µM on ERK2.
Taken in the same sequence, the figures for `CC(C)Oc1ccc(-c2n[nH]c3ccc(N4CC[C@]5(CCN(CC(=O)N6CCN(c7ccc(-c8ncn(C)n8)cc7)CC6)C5)C4=O)nc23)cn1` [Example 82] were ≤ 0.5 µM and ≤ 0.05 µM.
Taken in the same sequence, the figures for `CC(C)Oc1ccc(-c2n[nH]c3ccc(N4CC[C@]5(CCN(CC(=O)N6CCN(c7ccc(-c8ncn(C)n8)cn7)CC6)C5)C4=O)nc23)cn1` [Example 84] were ≤ 0.5 µM and ≤ 0.05 µM.
Take `CC(C)Oc1ccc(-c2n[nH]c3ccc(N4CC[C@]5(CCN(CC(=O)N6CC=C(c7ccc(-c8ncn(CCO)n8)cc7)CC6)C5)C4=O)nc23)cn1` [Example 89]: the IC50 with A375 (melanoma) cells was ≤ 0.5 µM; at ERK2, ≤ 0.05 µM.
Taken in the same sequence, the figures for `CC(C)c1nc2cc(-c3n[nH]c4ccc(N5CC[C@]6(CCN(CC(=O)N7CC=C(c8ccc(-c9ncn(C)n9)cc8)CC7)C6)C5=O)nc34)ccc2o1` [Example 91] were 0.5 to 1 µM and ≤ 0.05 µM.
